Values joined by “and” are separate entries in the source; they are usually repeats but may differ in a detail not shown here. Equal entries are not always repeated. Toxic doses and inconclusive results are not listed. Rule for the calls: active = survival T/C of 150% or more; inactive = T/C below 125% in these data.
Test system: P388 leukemia ip, CD2F1 mice, survival T/C
Test: NCI In Vivo Anticancer Drug Screen. Data for tumor model P388 Leukemia (intraperitoneal) in CD2F1 (CDF1) mice
Details: endpoint: median survival time, higher = longer survival
In short: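 Mice carrying the transplanted tumor received test compound or vehicle. Survival was recorded in each group, and the value is the treated-group measurement divided by that of the vehicle-treated control group.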

[1] = dose: 50.0 mg/kg/injection, schedule: Q01DX009 (ip), vehicle: saline
[2] = dose: 100.0 mg/kg/injection, schedule: Q04DX003 (ip), vehicle: saline with Tween-80
[3] = dose: 200.0 mg/kg/injection, schedule: Q04DX003 (ip), vehicle: saline with Tween-80
[4] = dose: 400.0 mg/kg/injection, schedule: Q04DX003 (ip), vehicle: saline with Tween-80
[5] = dose: 50.0 mg/kg/injection, schedule: Q01DX005 (ip), vehicle: saline with Tween-80
[6] = dose: 100.0 mg/kg/injection, schedule: Q01DX005 (ip), vehicle: saline with Tween-80
[7] = dose: 200.0 mg/kg/injection, schedule: Q01DX005 (ip), vehicle: saline with Tween-80
[8] = dose: 50.0 mg/kg/injection, schedule: Q01DX009 (ip), vehicle: saline with Tween-80
[9] = dose: 100.0 mg/kg/injection, schedule: Q01DX009 (ip), vehicle: saline with Tween-80
[10] = dose: 200.0 mg/kg/injection, schedule: Q01DX009 (ip), vehicle: saline with Tween-80
[11] = dose: 100.0 mg/kg/injection, schedule: Q04DX002 (ip), vehicle: saline with Tween-80
[12] = dose: 200.0 mg/kg/injection, schedule: Q04DX002 (ip), vehicle: saline with Tween-80
[13] = dose: 400.0 mg/kg/injection, schedule: Q04DX002 (ip), vehicle: saline with Tween-80
[14] = dose: 50.0 mg/kg/injection, schedule: Q01DX005 (ip), vehicle: Klucel (hydroxypropylcellulose) (HPC)
[15] = dose: 100.0 mg/kg/injection, schedule: Q01DX005 (ip), vehicle: Klucel (hydroxypropylcellulose) (HPC)
[16] = dose: 200.0 mg/kg/injection, schedule: Q01DX005 (ip), vehicle: Klucel (hydroxypropylcellulose) (HPC)
[17] = dose: 60.0 mg/kg/injection, schedule: Q01DX005 (ip), vehicle: saline
[18] = dose: 120.0 mg/kg/injection, schedule: Q01DX005 (ip), vehicle: saline
[19] = dose: 240.0 mg/kg/injection, schedule: Q01DX005 (ip), vehicle: saline
[20] = dose: 12.5 mg/kg/injection, schedule: Q01DX009 (ip), vehicle: saline with Tween-80
[21] = dose: 25.0 mg/kg/injection, schedule: Q01DX009 (ip), vehicle: saline with Tween-80
[22] = dose: 50.0 mg/kg/injection, schedule: Q01DX009 (ip), vehicle: Klucel (hydroxypropylcellulose) (HPC)
[23] = dose: 100.0 mg/kg/injection, schedule: Q01DX009 (ip), vehicle: Klucel (hydroxypropylcellulose) (HPC)
[24] = dose: 100.0 mg/kg/injection, schedule: Q04DX002 (ip), vehicle: Klucel (hydroxypropylcellulose) (HPC)
[25] = dose: 200.0 mg/kg/injection, schedule: Q01DX009 (ip), vehicle: Klucel (hydroxypropylcellulose) (HPC)

Measured: T/C

C[n+]1ccccc1C#N
inactive: dose: 12.5 mg/kg/injection, schedule: Q01DX009 (ip), vehicle: saline 109 % of control | dose: 25.0 mg/kg/injection, schedule: Q01DX009 (ip), vehicle: saline 104 % of control | [1] 104 % of control

N#C/C(=C\c1cccc2ccccc12)c1ccc(Cl)cc1
inactive: dose: 50.0 mg/kg/injection, schedule: Q04DX003 (ip), vehicle: saline with Tween-80 94 % of control | [2] 97 % of control | [3] 103 % of control | [4] 97 % of control

Nc1ncn[nH]1
inactive: [1] 99 % of control and 105 % of control | dose: 100.0 mg/kg/injection, schedule: Q01DX009 (ip), vehicle: saline 98 % of control and 97 % of control | dose: 200.0 mg/kg/injection, schedule: Q01DX009 (ip), vehicle: saline 100 % of control and 106 % of control | dose: 400.0 mg/kg/injection, schedule: Q01DX009 (ip), vehicle: saline 99 % of control

ON(C(=S)c1ccccc1)c1ccccc1
inactive: [5] 105 % of control | [6] 102 % of control | [7] 102 % of control

OCC1CC=CCC1 (configuration not stated)
inactive: [2] 90 % of control | [3] 100 % of control | [4] 90 % of control

COc1cccc2c1C(=O)c1c(O)c3c(c(O)c1C2=O)CC(=O)CC3OC1CC(NC(=O)C(F)(F)F)C(O)C(C)O1 (configuration not stated)
inactive: dose: 1.56 mg/kg/injection, schedule: Q01DX009 (ip), vehicle: other 104 % of control | dose: 3.13 mg/kg/injection, schedule: Q01DX009 (ip), vehicle: other 102 % of control | dose: 6.25 mg/kg/injection, schedule: Q01DX009 (ip), vehicle: other 98 % of control | dose: 12.5 mg/kg/injection, schedule: Q01DX009 (ip), vehicle: other 90 % of control

CCOC(=O)c1cc(N)c(C(=O)OCC)cc1N
inactive: [8] 97 % of control | [9] 86 % of control and 96 % of control | [10] 96 % of control and 97 % of control | dose: 400.0 mg/kg/injection, schedule: Q01DX009 (ip), vehicle: saline with Tween-80 92 % of control and 96 % of control

Cc1noc(NCc2ccccc2)c1C
inactive: [2] 104 % of control | [3] 101 % of control | [4] 100 % of control

CC(C)c1c(OC(=O)N(C)C)c(C#N)c2[nH]c3ccccc3n2c1=O
inactive: dose: 60.0 mg/kg/injection, schedule: Q01DX005 (ip), vehicle: saline with Tween-80 109 % of control | dose: 120.0 mg/kg/injection, schedule: Q01DX005 (ip), vehicle: saline with Tween-80 94 % of control | dose: 240.0 mg/kg/injection, schedule: Q01DX005 (ip), vehicle: saline with Tween-80 86 % of control

COC(=O)c1ccccc1-c1ccccc1C=O
inactive: [11] 97 % of control | [12] 98 % of control | [13] 100 % of control

CC1(C)CO[Se](=O)OC1
inactive: dose: 3.13 mg/kg/injection, schedule: Q01DX009 (ip), vehicle: saline 114 % of control

CNC(=O)c1ccccc1CC1(O)c2ccccc2Oc2ccccc21
inactive: [14] 100 % of control | [15] 99 % of control | [16] 96 % of control

Cc1ccn(C)n1
inactive: [17] 96 % of control | [18] 93 % of control | [19] 100 % of control

C/C=C1\CNC2Cc3c([nH]c4ccccc34)C(c3c(OC)ccc4c5c([nH]c34)C3(C(=O)OC)CC4CC(CC)C3N(CC5)C4)CC1C2C(=O)OC (configuration not stated)
inactive: dose: 1.56 mg/kg/injection, schedule: Q01DX009 (ip), vehicle: saline with Tween-80 93 % of control | dose: 3.12 mg/kg/injection, schedule: Q01DX009 (ip), vehicle: saline with Tween-80 90 % of control | [20] 93 % of control | [21] 90 % of control

O=C(O)CCCc1ccc2c(c1)OCO2
inactive: [5] 113 % of control | [6] 98 % of control | [7] 106 % of control

Oc1nc(-c2ccccc2)sc1-c1ccc(Cl)cc1
inactive: [20] 93 % of control | [21] 86 % of control | [10] 98 % of control

O=C(O)c1nn(-c2ccccc2)c2c1CS(=O)(=O)c1ccccc1-2
inactive: [11] 100 % of control | [12] 106 % of control | [13] 104 % of control

CC1=COC(C)(C2NC(C)(C)CC(C)O2)CC1 (configuration not stated)
inactive: dose: 50.0 mg/kg/injection, schedule: Q01DX005 (ip), vehicle: saline 107 % of control | dose: 100.0 mg/kg/injection, schedule: Q01DX005 (ip), vehicle: saline 103 % of control | dose: 200.0 mg/kg/injection, schedule: Q01DX005 (ip), vehicle: saline 102 % of control

O=S(=O)(Cc1cccc(C(F)(F)F)c1)c1nc2cccnc2s1
inactive: [8] 103 % of control | [9] 103 % of control | [10] 101 % of control

O=C1OC(=O)c2c(Br)c(Br)c(Br)c(Br)c21
inactive: dose: 100.0 mg/kg/injection, schedule: Q04DX003 (ip), vehicle: saline 100 % of control | dose: 200.0 mg/kg/injection, schedule: Q04DX003 (ip), vehicle: saline 100 % of control | dose: 400.0 mg/kg/injection, schedule: Q04DX003 (ip), vehicle: saline 104 % of control

O=C1NS(=O)(=O)Oc2c1ccc1ccccc21
inactive: [20] 108 % of control | [21] 99 % of control | [8] 96 % of control | [9] 96 % of control | [10] 110 % of control

CN(C(N)=O)C1CCCC1
inactive: [2] 100 % of control | [3] 109 % of control | [4] 113 % of control

CCCCCCCCCCCCCCCCCCNCCC#N
inactive: dose: 12.5 mg/kg/injection, schedule: Q01DX009 (ip), vehicle: Klucel (hydroxypropylcellulose) (HPC) 101 % of control | dose: 25.0 mg/kg/injection, schedule: Q01DX009 (ip), vehicle: Klucel (hydroxypropylcellulose) (HPC) 98 % of control and 100 % of control | [22] 98 % of control and 89 % of control (2×) | [23] 99 % of control and 87 % of control

O=[N+]([O-])c1ccc2nc3c4ccccc4c4ccccc4c3nc2c1
inactive: [20] 105 % of control | [21] 116 % of control | [8] 109 % of control and 117 % of control | [9] 105 % of control | [10] 104 % of control

FC(F)(F)C1(C(F)(F)F)O[Si]2(OC(C(F)(F)F)(C(F)(F)F)c3ccccc32)c2ccccc21 (tested in a mixture with another compound)
inactive: dose: 25.0 mg/kg/injection, schedule: Q04DX002 (ip), vehicle: Klucel (hydroxypropylcellulose) (HPC) 109 % of control | dose: 50.0 mg/kg/injection, schedule: Q04DX002 (ip), vehicle: Klucel (hydroxypropylcellulose) (HPC) 94 % of control | [24] 100 % of control and 102 % of control

CCN1C(=O)c2cccc([N+](=O)[O-])c2C1=O
inactive: [23] 101 % of control | [25] 104 % of control

Cc1ccc(C)c(NC(=O)Nc2ccc(CCO)cc2)c1
inactive: [22] 102 % of control | [23] 102 % of control | [25] 99 % of control

O=C1C2C3CCC(O3)C2C(=O)N1CCO (configuration not stated)
inactive: [17] 96 % of control | [18] 89 % of control | [19] 98 % of control

Cc1c2ccccc2c(C)c2c1cc(C(=O)O)c1ccccc12
inactive: dose: 25.0 mg/kg/injection, schedule: Q01DX005 (ip), vehicle: saline with Tween-80 113 % of control | [5] 113 % of control and 116 % of control | [7] 124 % of control

NC(=S)c1cccc(/C=N/Nc2ccc([N+](=O)[O-])cc2[N+](=O)[O-])c1
inactive: dose: 100.0 mg/kg/injection, schedule: Q01DX001 (ip), vehicle: saline 99 % of control | dose: 200.0 mg/kg/injection, schedule: Q01DX001 (ip), vehicle: saline 105 % of control | dose: 400.0 mg/kg/injection, schedule: Q01DX001 (ip), vehicle: saline 96 % of control

CCCCCC1OC1CC1OC1CCCCCCCC(=O)OC (configuration not stated)
inactive: [14] 96 % of control | [15] 96 % of control | [16] 104 % of control

CC(=O)C(CSC(=O)c1ccccc1)C(C)=O
inactive: [24] 100 % of control | dose: 200.0 mg/kg/injection, schedule: Q04DX002 (ip), vehicle: Klucel (hydroxypropylcellulose) (HPC) 100 % of control

From PubChem BioAssay AID330 (DTP/NCI, 2004)
